Assay results taken from ChEMBL document CHEMBL1131308, “Synthesis and biological activity of 4-amino-7-oxo-substituted analogues of 5-deaza-5,6,7,8-tetrahydrofolic acid and 5,10-dideaza-5, 6,7,8-tetrahydrofolic acid” (J Med Chem, 1998).
In brackets after ≈: the same amount, converted by molar mass.

What follows are molecules tested on CCRF-CEM (assay: In vitro inhibitory activity against CCRF-CEM human leukemia cells using cytotoxicity assay.).
Assay type: functional, cell-based

Compound | IC50
COC(=O)c1ccc(NCC2Cc3c(N)nc(N)nc3NC2=O)cc1 (centres undefined) | > 20 µg/mL
COC(=O)c1ccc(CCC2Cc3c(N)nc(N)nc3NC2=O)cc1 (centres undefined) | > 20 µg/mL
Nc1nc(N)c2c(n1)NC(=O)C(CNc1ccc(C(=O)O)cc1)C2 (centres undefined) | > 20 µg/mL
Nc1nc(N)c2c(n1)NC(=O)C(CNc1ccc(C(=O)NC(CCC(=O)O)C(=O)O)cc1)C2 (centres undefined) | > 20 µg/mL
CN(CC1Cc2c(N)nc(N)nc2NC1=O)c1ccc(C(=O)NC(CCC(=O)O)C(=O)O)cc1 (centres undefined) | > 20 µg/mL
Nc1nc(N)c2c(n1)NC(=O)C(CCc1ccc(C(=O)O)cc1)C2 (centres undefined) | 6.7 µg/mL (≈ 20.5 µM)
CN(CC1Cc2c(N)nc(N)nc2NC1=O)c1ccc(C(=O)O)cc1 (centres undefined) | > 20 µg/mL
Nc1nc(N)c2c(n1)NC(=O)C(CCc1ccc(C(=O)NC(CCC(=O)O)C(=O)O)cc1)C2 (centres undefined) | 39.2 µg/mL (≈ 85.9 µM)
COC(=O)c1ccc(N(C)CC2Cc3c(N)nc(N)nc3NC2=O)cc1 (centres undefined) | > 20 µg/mL
